Laboratory results taken from PubChem BioAssay (NCI).
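Method: 48-hour compound exposure of cells in 96-well plates, five concentrations, linear interpolation of endpoints. Here, GI50 denotes the concentration required for 50% inhibition of growth. TGI is the concentration that stops growth completely.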

Columns and labels:
Experiment in all cases: NCI anticancer screen, dose series, 48 h
HOP-92 NSCLC = system: HOP-92 NSCLC
OVCAR-4 ovarian = system: OVCAR-4 ovarian
SK-MEL-28 melanoma = system: SK-MEL-28 melanoma
UACC-257 melanoma = system: UACC-257 melanoma
RPMI-8226 leukemia = system: RPMI-8226 leukemia
MOLT-4 leukemia = system: MOLT-4 leukemia
MDA-MB-231 breast = system: MDA-MB-231 breast
TK-10 renal = system: TK-10 renal
SNB-78 CNS = system: SNB-78 CNS
HOP-18 NSCLC = system: HOP-18 NSCLC

**Q.** Which results are given for `O=C1C(Cl)=C(Nc2cccc(Cl)c2)C(=O)N1Cc1ccccc1Cl`?
**A.** GI50 (HOP-92 NSCLC): 8.28 µM; TGI (HOP-92 NSCLC): 32.4 µM; GI50 (OVCAR-4 ovarian): 12.4 µM; TGI (OVCAR-4 ovarian): 42.4 µM; GI50 (SK-MEL-28 melanoma): 9950 nM; TGI (SK-MEL-28 melanoma): 34.2 µM; GI50 (UACC-257 melanoma): 12.8 µM; TGI (UACC-257 melanoma): 30.9 µM; GI50 (RPMI-8226 leukemia): 1820 nM; TGI (RPMI-8226 leukemia): 26 µM; GI50 (MOLT-4 leukemia): 370 nM; TGI (MOLT-4 leukemia): > 100 µM; GI50 (MDA-MB-231 breast): 2400 nM; TGI (MDA-MB-231 breast): 15.1 µM; GI50 (TK-10 renal): 12.1 µM; TGI (TK-10 renal): 30 µM

**Q.** Which results are given for `CC1(c2cccc3ccccc23)OC(=O)c2ccccc21` (configuration not stated)?
**A.** TGI (HOP-92 NSCLC): 36.5 µM; TGI (SNB-78 CNS): > 100 µM; TGI (OVCAR-4 ovarian): > 100 µM; TGI (SK-MEL-28 melanoma): 75.8 µM; TGI (UACC-257 melanoma): 54.5 µM; TGI (RPMI-8226 leukemia): 77.6 µM; TGI (MOLT-4 leukemia): 55.6 µM; TGI (TK-10 renal): > 100 µM

**Q.** Which GI50 (HOP-92 NSCLC) does the source give for `CCC(CO)Nc1nc(NCc2ccccc2O)c2ncn(C(C)C)c2n1` (configuration not stated) here?
**A.** 4.97 µM

**Q.** And the TGI (HOP-92 NSCLC)?
**A.** 26.2 µM

**Q.** What about the GI50 (OVCAR-4 ovarian) of the same compound?
**A.** 5.42 µM

**Q.** And the TGI (OVCAR-4 ovarian)?
**A.** 33.6 µM

**Q.** And the GI50 (SK-MEL-28 melanoma)?
**A.** 2350 nM

**Q.** What about the TGI (SK-MEL-28 melanoma) of the same compound?
**A.** 12.8 µM

**Q.** And the GI50 (UACC-257 melanoma)?
**A.** 32.2 µM

**Q.** And the TGI (UACC-257 melanoma)?
**A.** > 100 µM

**Q.** And the GI50 (RPMI-8226 leukemia)?
**A.** 4410 nM

**Q.** What about the TGI (RPMI-8226 leukemia) of the same compound?
**A.** 20.7 µM

**Q.** And the GI50 (MOLT-4 leukemia)?
**A.** 2910 nM

**Q.** What about the TGI (MOLT-4 leukemia) of the same compound?
**A.** 12.9 µM

**Q.** What about the GI50 (MDA-MB-231 breast) of the same compound?
**A.** 4220 nM

**Q.** And the TGI (MDA-MB-231 breast)?
**A.** 38 µM

**Q.** What about the GI50 (TK-10 renal) of the same compound?
**A.** 10.2 µM

**Q.** What about the TGI (TK-10 renal) of the same compound?
**A.** > 100 µM

**Q.** Which results are given for `CC(=O)[C@@]1(O)CC[C@H]2[C@@H]3C[C@H](C)C4=CC(=O)CC[C@]4(C)[C@H]3[C@@H](O)C[C@@]21C`?
**A.** TGI (HOP-92 NSCLC): > 100 µM; TGI (OVCAR-4 ovarian): > 100 µM; TGI (SK-MEL-28 melanoma): > 100 µM; TGI (UACC-257 melanoma): > 100 µM; TGI (RPMI-8226 leukemia): > 100 µM; TGI (MOLT-4 leukemia): > 100 µM; TGI (MDA-MB-231 breast): > 100 µM; TGI (TK-10 renal): > 100 µM

**Q.** How did the GI50 (HOP-92 NSCLC) turn out when `O=C(/C=C/c1cccnc1)NCCCCC1CCCN(C(=O)c2ccccc2)C1` (configuration not stated) was run?
**A.** > 100 µM

**Q.** What about the TGI (HOP-92 NSCLC) of the same compound?
**A.** > 100 µM

**Q.** What about the GI50 (OVCAR-4 ovarian) of the same compound?
**A.** > 74 µM

**Q.** And the TGI (OVCAR-4 ovarian)?
**A.** > 100 µM

**Q.** And the GI50 (SK-MEL-28 melanoma)?
**A.** > 100000 nM

**Q.** And the TGI (SK-MEL-28 melanoma)?
**A.** > 100 µM

**Q.** What about the GI50 (UACC-257 melanoma) of the same compound?
**A.** > 76.8 µM

**Q.** And the TGI (UACC-257 melanoma)?
**A.** > 100 µM

**Q.** And the GI50 (RPMI-8226 leukemia)?
**A.** < 10 nM

**Q.** What about the TGI (RPMI-8226 leukemia) of the same compound?
**A.** > 100 µM

**Q.** And the GI50 (MOLT-4 leukemia)?
**A.** 23000 nM

**Q.** And the TGI (MOLT-4 leukemia)?
**A.** > 100 µM

**Q.** And the GI50 (MDA-MB-231 breast)?
**A.** > 100000 nM

**Q.** What about the TGI (MDA-MB-231 breast) of the same compound?
**A.** > 100 µM

**Q.** What about the GI50 (TK-10 renal) of the same compound?
**A.** > 100 µM

**Q.** What about the TGI (TK-10 renal) of the same compound?
**A.** > 100 µM

**Q.** What does the source list for `O=C1/C(=C/c2ccccc2)CN(C(=O)c2cccnc2)C/C1=C\c1ccccc1`?
**A.** GI50 (HOP-92 NSCLC): 10.9 µM; TGI (HOP-92 NSCLC): 23.6 µM; GI50 (OVCAR-4 ovarian): 3.3 µM; TGI (OVCAR-4 ovarian): 13.8 µM; GI50 (SK-MEL-28 melanoma): 2390 nM; TGI (SK-MEL-28 melanoma): 6.37 µM; GI50 (UACC-257 melanoma): 3.2 µM; TGI (UACC-257 melanoma): 11 µM; GI50 (RPMI-8226 leukemia): 318 nM; TGI (RPMI-8226 leukemia): 1.44 µM; GI50 (MOLT-4 leukemia): 752 nM; TGI (MOLT-4 leukemia): > 100 µM; GI50 (MDA-MB-231 breast): 1920 nM; TGI (MDA-MB-231 breast): 4.83 µM; GI50 (TK-10 renal): 3.57 µM; TGI (TK-10 renal): 13.4 µM

**Q.** What does the source list for `N/C(=C\c1ccc(OCc2ccccc2)c(OCc2ccccc2)c1[N+](=O)[O-])C(=O)O`?
**A.** TGI (HOP-92 NSCLC): > 100 µM; TGI (SNB-78 CNS): > 100 µM; TGI (SK-MEL-28 melanoma): > 100 µM; TGI (UACC-257 melanoma): > 100 µM; TGI (RPMI-8226 leukemia): > 100 µM; TGI (HOP-18 NSCLC): > 100 µM; TGI (MOLT-4 leukemia): > 100 µM; TGI (TK-10 renal): > 100 µM

**Q.** For `COC(=O)/C([Se]c1c(C)cc(C)cc1C)=C(\[Se]c1c(C)cc(C)cc1C)C(=O)OC`, which TGI (HOP-92 NSCLC) is on record?
**A.** > 100 µM

**Q.** What about the TGI (SNB-78 CNS) of the same compound?
**A.** > 100 µM

**Q.** What about the TGI (OVCAR-4 ovarian) of the same compound?
**A.** > 100 µM

**Q.** What about the TGI (UACC-257 melanoma) of the same compound?
**A.** > 100 µM

**Q.** What about the TGI (RPMI-8226 leukemia) of the same compound?
**A.** > 100 µM

**Q.** And the TGI (HOP-18 NSCLC)?
**A.** > 100 µM

**Q.** And the TGI (MOLT-4 leukemia)?
**A.** > 100 µM

**Q.** And the TGI (TK-10 renal)?
**A.** > 100 µM

**Q.** Which TGI (HOP-92 NSCLC) does the source give for `COc1ccc2c(=O)c3ccoc3n(CC=C(C)C)c2c1` here?
**A.** > 63.7 µM

**Q.** And the TGI (OVCAR-4 ovarian)?
**A.** > 100 µM

**Q.** And the TGI (SK-MEL-28 melanoma)?
**A.** > 100 µM

**Q.** What about the TGI (UACC-257 melanoma) of the same compound?
**A.** > 100 µM

**Q.** And the TGI (RPMI-8226 leukemia)?
**A.** > 100 µM

**Q.** And the TGI (MOLT-4 leukemia)?
**A.** > 100 µM

**Q.** What about the TGI (MDA-MB-231 breast) of the same compound?
**A.** > 100 µM

**Q.** What about the TGI (TK-10 renal) of the same compound?
**A.** > 100 µM

**Q.** Which results are given for `COc1c(OC)c(OC)c2c(c1OC)c(=O)c1ccccc1n2C`?
**A.** TGI (HOP-92 NSCLC): > 100 µM; TGI (OVCAR-4 ovarian): > 100 µM; TGI (SK-MEL-28 melanoma): > 100 µM; TGI (UACC-257 melanoma): > 100 µM; TGI (RPMI-8226 leukemia): > 100 µM; TGI (MOLT-4 leukemia): > 100 µM; TGI (MDA-MB-231 breast): > 100 µM; TGI (TK-10 renal): > 100 µM
